Results on 13 molecules are retold here after patent US12391695B2, “PRMT5 inhibitors” (Lupin Limited, priority 2019, dated 2025).

Where two headings read alike, the source gives them in different places.

One assay concerns SDMA. Kind of assay: SDMA inhibition assay in Z-138 cells (ELISA with anti-SDMA antibody). It is filed as cell-based. Conditions: Homo sapiens, Z-138, 48 h, 48 h treatment. The procedure:
Z-138 cells (ATCC, CRL-3001™) were seeded at a density of 1 million cells/well in transparent, flat bottomed tissue culture grade 48-well plates. Cells were treated with various concentration of test compounds for a period of 48 h. Cell lysate was prepared using 1× CST Lysis buffer (Cell Signaling Technology, USA) and 500 ng/well/50 μL of lysate in pH 9.6 carbonate buffer was coated on 96-well Maxisorb plate and incubated overnight at 4° C. The plate was washed twice in 1×PBS containing 0.05% Tween 20 and blocked in 1% BSA for 1 h at ambient temperature. Further, the plate was incubated first with primary antibody (anti-SDMA antibody; CST #13222s) at ambient temperature for 2 h and then with HRP-conjugated secondary antibody at ambient temperature for 1 h with 2 intermittent washing steps in between.
For luminiscence based detection, HRP substrates (substrate A+substrate B in a 1:1 proportion) were added followed by luminiscence reading after 30 min in Synergy™ 2 reader (Biotek, USA).
For absorbance based detection, TMB substrate was added followed by addition of STOP solution (2N H2SO4) post colour development and absorbance (excitation 450 nm and emission 540 nm) was measured in Synergy™ 2 reader (Biotek, USA).
% inhibition of SDMA was calculated relative to the vehicle control samples containing media with 0.1% DMSO alone as per the formula below. (Avg. of Untreated Control−Avg. of Test)×100 Avg. Of Untreated Control
The IC50 values of individual compounds were calculated with Non Linear Regression Analysis using Graph Pad Prism (Graph Pad software, Inc, USA).
In general terms: In an ELISA, binding on a coated surface is turned into a signal by an enzyme label.

Another assay addresses PRMT5:MEP50 (Homo sapiens, UniProt O14744). The experiment in a line: PRMT5 biochemical assay (HTRF, biotinylated H4R3 substrate), protocols 1 and 2. Conditions: 1 μM SAM, 50 nM biotinylated H4R3, protocol 1 or 2 not given, read-out: IC50 (activity range), inhibition of PRMT5. The procedure: (§1) Inhibitory effect of compounds on PRMT5 was assessed using HTRF detection technology in biochemical assay. Biotinylated H4R3 (residues 1-21) was used as a substrate. Compounds were pre-incubated with 15-25 ng PRMT5:MEP50 per well of a 384-well plate for 30 min at room temperature in the assay buffer containing 20 mM Bicine, pH 7.6, 25 mM NaCl, 2 mM DTT, 0.01% Chicken albumin and 0.01% Tween-20. Reaction was initiated by adding 1 μM of SAM and 50 nM biotinylated H4R3. Total assay volume was 15 μL. Reaction was continued for 120 min at room temperature. Then detection solution containing Streptavidin-Eu cryptate, anti-rabbit IgG-XL-665, Histone H4R3 Dimethyl Symmetric (H4R3me2s) Polyclonal Antibody, all prepared in HTRF detection buffer was added and further incubated for 30 min at room temperature. HTRF signal was recorded in PHERAStar microplate reader. Ratio of signal obtained at 665 nm and 620 nm was used to compute the percent inhibition of compound as follows % Inhibition=100−((Test Ratio−Negative control Ratio)/(Positive control Ratio−Negative control Ratio)*100) where Positive control=PRMT5+SAM+H4R3 Negative control=PRMT5+H4R3 Biochemical Assay Protocol 2
as §1, with “2.5” for “15-25”, “4 h” for “120 min”, “control=PRMT5+H4R3” for “control=PRMT5+H4R3 Biochemical Assay Protocol 2”
On the technique in general: Time-resolved FRET reads energy transfer from a long-lived donor to a nearby acceptor.

In another assay the test system is Z-138 cells. Kind of assay: Anti-cancer assay (Z-138), cell viability by CellTiterGlo. It is filed as cell-based. Conditions: Homo sapiens, 96 h treatment, read-out: IC50 (activity range), inhibition of cell viability. The procedure: Z-138 cells were seeded at a density of 2000-3000 cells per well in culture media (IMDM+10% FBS). PANC-1 (ATCC, CRL-1469™) and MIA PaCa-2 (ATCC, CRL-1420™) cells were seeded at a density of 200-300 cells per well in culture media (DMEM+10% FBS). Cells were seeded in opaque, flat bottomed tissue culture grade 96-well plates and Z-138 cells (suspension) were seeded and treated on the same day with various concentrations of test compounds. PANC-1 and MIA PaCa-2 cells, being adherent, were kept for overnight settlement at standard cell culture conditions (37° C., 5% CO2). On the following day, cells were treated with various concentrations of test compounds. Cells were treated with test compounds for a period of 96 h, 7 days and 10 days, for Z-138 cells, PANC-1 cells and MIA PaCa-2 cells, respectively. Cell viability was assessed using CellTiterGlo™ (Promega, USA) as per manufacturer's instructions. Relative Light Units (RLU) were read in Synergy™ 2 reader (Biotek, USA). The assay measures cellular ATP as an indicator of cell viability. RLU is proportional to the number of viable cells in the respective well. % inhibition of cell viability was calculated relative to the vehicle control samples containing media with 0.1% DMSO alone as per the formula below. (Avg. of Untreated Control−Avg. of Test)×100 Avg. Of Untreated Control
The IC50 values of individual compounds were calculated with Non Linear Regression Analysis using Graph Pad Prism (Graph Pad software, Inc, USA). • Anti-Cancer Assay (Z-138)
Background: ATP-based viability assays read luminescence as a measure of living cells.

Where [1] appears, read: read-out: IC50 (activity range), SDMA inhibition.
Where [2] appears, read: range with mixed units pM/nM, units kept in the value.

Sequence of PRMT5:MEP50 (O14744 whole entry, the tested form may be a part): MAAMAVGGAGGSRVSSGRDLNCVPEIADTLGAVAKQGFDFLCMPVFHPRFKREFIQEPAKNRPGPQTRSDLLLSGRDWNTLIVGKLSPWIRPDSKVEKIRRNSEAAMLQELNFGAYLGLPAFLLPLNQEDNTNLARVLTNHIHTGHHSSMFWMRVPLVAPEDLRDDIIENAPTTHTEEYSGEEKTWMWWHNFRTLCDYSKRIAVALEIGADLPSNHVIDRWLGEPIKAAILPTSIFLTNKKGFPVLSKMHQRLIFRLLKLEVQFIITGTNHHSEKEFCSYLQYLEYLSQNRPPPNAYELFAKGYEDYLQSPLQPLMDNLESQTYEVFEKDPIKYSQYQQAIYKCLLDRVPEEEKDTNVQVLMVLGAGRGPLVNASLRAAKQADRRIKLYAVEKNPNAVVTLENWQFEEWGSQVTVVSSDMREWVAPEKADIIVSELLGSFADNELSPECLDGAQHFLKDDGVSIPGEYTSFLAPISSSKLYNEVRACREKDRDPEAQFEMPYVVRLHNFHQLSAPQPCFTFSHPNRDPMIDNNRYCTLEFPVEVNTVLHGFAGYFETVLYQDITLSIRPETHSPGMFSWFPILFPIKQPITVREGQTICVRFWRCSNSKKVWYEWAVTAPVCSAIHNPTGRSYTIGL
Sequence of PRMT5:MEP50 (Q9BQA1 whole entry partner, the tested form may be a part): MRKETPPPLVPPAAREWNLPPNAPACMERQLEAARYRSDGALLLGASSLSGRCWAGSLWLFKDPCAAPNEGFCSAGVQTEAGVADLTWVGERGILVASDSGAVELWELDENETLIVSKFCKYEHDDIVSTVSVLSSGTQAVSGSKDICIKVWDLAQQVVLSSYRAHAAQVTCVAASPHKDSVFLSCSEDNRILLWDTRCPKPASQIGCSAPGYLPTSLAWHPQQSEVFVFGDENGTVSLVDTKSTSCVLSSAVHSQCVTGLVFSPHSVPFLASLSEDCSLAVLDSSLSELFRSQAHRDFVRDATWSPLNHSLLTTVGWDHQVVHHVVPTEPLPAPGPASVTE

By IC50 is commonly meant the midpoint of a concentration-inhibition curve. For `Cc1cc2c(c(CCC3=C[C@@H](n4ccc5c(N)ncnc54)[C@H](O)[C@@H]3O)c1)CNCC2` [Compound 8, (1S,2R,5R)-5-(4-amino-7H-pyrrolo[2,3-d]pyrimidin-7-yl)-3-(2-(6-methyl-1,2,3,4-tetrahydroisoquinolin-8-yl)ethyl)cyclopent-3-ene-1,2-diol], the IC50 is 1100 to 50000 pM in the assay with SDMA (setting [1]), 0.25 to 0.95 nM at PRMT5:MEP50 and more than 1000 pM in the assay on Z-138 cells.

Take `Nc1ncnc2c1ccn2[C@@H]1C=C(CCc2ccc(F)c3c2CNCC3)[C@@H](O)[C@H]1O` [Compound 9, (1S,2R,5R)-5-(4-amino-7H-pyrrolo[2,3-d]pyrimidin-7-yl)-3-(2-(5-fluoro-1,2,3,4-tetrahydroisoquinolin-8-yl)ethyl)cyclopent-3-ene-1,2-diol]: the IC50 in the assay with SDMA (setting [1]) is 1100 to 50000 pM; on PRMT5:MEP50, 0.25 to 0.95 nM; in the assay on Z-138 cells, more than 1000 pM.

For the molecule `Nc1ncnc2c1ccn2[C@@H]1C=C(CCc2cc(C(F)F)cc3c2CNCC3)[C@@H](O)[C@H]1O` [Compound 10, (1S,2R,5R)-5-(4-amino-7H-pyrrolo[2,3-d]pyrimidin-7-yl)-3-(2-(6-(difluoromethyl)-1,2,3,4-tetrahydroisoquinolin-8-yl)ethyl)cyclopent-3-ene-1,2-diol], the values for the IC50 in the assay on SDMA (setting [2]), on PRMT5:MEP50 and in the assay with Z-138 cells (setting [2]) were 100 to 1000 pM, 0.25 to 0.95 nM and 101 to 1000 pM, respectively.

Regarding `Nc1ncnc2c1ccn2[C@@H]1C=C(CCc2ccc(C(F)F)c3c2CNCC3)[C@@H](O)[C@H]1O` [Compound 11, (1S,2R,5R)-5-(4-amino-7H-pyrrolo[2,3-d]pyrimidin-7-yl)-3-(2-(5-(difluoromethyl)-1,2,3,4-tetrahydroisoquinolin-8-yl)ethyl)cyclopent-3-ene-1,2-diol], the figures for the IC50 in the assay with SDMA (setting [1]), on PRMT5:MEP50 and in the assay with Z-138 cells were 1100 to 50000 pM, 0.25 to 0.95 nM and more than 1000 pM, respectively.

In the case of `Nc1ncnc2c1ccn2[C@@H]1C=C(COc2cc(C(F)F)c(F)c3c2CNCC3)[C@@H](O)[C@H]1O` [Compound 12, (1S,2R,5R)-5-(4-amino-7H-pyrrolo[2,3-d]pyrimidin-7-yl)-3-(((6-(difluoromethyl)-5-fluoro-1,2,3,4-tetrahydroisoquinolin-8-yl)oxy)methyl)cyclopent-3-ene-1,2-diol], the IC50 in the assay with SDMA (setting [1]) was 1100 to 50000 pM; at PRMT5:MEP50, 0.25 to 0.95 nM; in the assay on Z-138 cells it was more than 1000 pM.

On to `Nc1ncnc2c1ccn2[C@@H]1C=C(CCc2cc(C(F)F)c(F)c3c2CNCC3)[C@@H](O)[C@H]1O` [Compound 13, (1S,2R,5R)-5-(4-amino-7H-pyrrolo[2,3-d]pyrimidin-7-yl)-3-(2-(6-(difluoromethyl)-5-fluoro-1,2,3,4-tetrahydroisoquinolin-8-yl)ethyl)cyclopent-3-ene-1,2-diol], for which the IC50 in the assay with SDMA (setting [1]) was 1100 to 50000 pM; on PRMT5:MEP50, 0.25 to 0.95 nM; in the assay on Z-138 cells (setting [2]), 101 to 1000 pM.

For `Cc1ncnc2c1ccn2[C@@H]1C=C(CCc2cc(C(F)F)cc3c2CNCC3)[C@@H](O)[C@H]1O` [Compound 14, (1S,2R,5R)-3-(2-(6-(difluoromethyl)-1,2,3,4-tetrahydroisoquinolin-8-yl)ethyl)-5-(4-methyl-7H-pyrrolo[2,3-d]pyrimidin-7-yl)cyclopent-3-ene-1,2-diol], the IC50 in the assay with SDMA (setting [1]) is 1100 to 50000 pM; at PRMT5:MEP50 it was 0.25 to 0.95 nM; in the assay with Z-138 cells (setting [2]) it was 101 to 1000 pM.

As to `Cc1ncnc2c1ccn2[C@@H]1C=C(CCc2cc(C(F)F)c(F)c3c2CNCC3)[C@@H](O)[C@H]1O` [Compound 15, (1S,2R,5R)-3-(2-(6-(difluoromethyl)-5-fluoro-1,2,3,4-tetrahydroisoquinolin-8-yl)ethyl)-5-(4-methyl-7H-pyrrolo[2,3-d]pyrimidin-7-yl)cyclopent-3-ene-1,2-diol], the figures for the IC50 in the assay on SDMA (setting [2]), on PRMT5:MEP50 and in the assay with Z-138 cells (setting [2]) were 100 to 1000 pM, 0.25 to 0.95 nM and 101 to 1000 pM, respectively.

Take `Nc1cc(=O)n([C@@H]2C=C(COc3cc(F)c4cc(Cl)c(N)nc4c3)[C@@H](O)[C@H]2O)cn1` [Compound 17, 6-amino-3-((1R,4R,5S)-3-(((2-amino-3-chloro-5-fluoroquinolin-7-yl)oxy)methyl)-4,5-dihydroxycyclopent-2-en-1-yl)pyrimidin-4 (3H)-one]: the figures for the IC50 with SDMA (setting [1]), at PRMT5:MEP50 and in the assay on Z-138 cells were 1100 to 50000 pM, 0.25 to 0.95 nM and more than 1000 pM, respectively.

For `Cc1cc(=O)n([C@@H]2C=C(COc3cc(F)c4cc(Cl)c(N)nc4c3)[C@@H](O)[C@H]2O)cn1` [Compound 18, 3-((1R,4R,5S)-3-(((2-amino-3-chloro-5-fluoroquinolin-7-yl)oxy)methyl)-4,5-dihydroxycyclopent-2-en-1-yl)-6-methylpyrimidin-4 (3H)-one], the half-maximal inhibitory concentration (IC50) in the assay on SDMA (setting [1]) is 1100 to 50000 pM; at PRMT5:MEP50, more than 0.95 nM; in the assay with Z-138 cells, more than 1000 pM.

In the case of `Nc1nc2cc(OCC3=C[C@@H](n4cnc(N)c(F)c4=O)[C@H](O)[C@@H]3O)cc(F)c2cc1Cl` [Compound 19, 6-amino-3-((1R,4R,5S)-3-(((2-amino-3-chloro-5-fluoroquinolin-7-yl)oxy)methyl)-4,5-dihydroxycyclopent-2-en-1-yl)-5-fluoropyrimidin-4 (3H)-one], the values for the IC50 with SDMA (setting [2]), on PRMT5:MEP50 and in the assay with Z-138 cells were 100 to 1000 pM, more than 0.95 nM and more than 1000 pM, respectively.

For the molecule `Nc1ncnc2c1ccn2[C@@H]1C=C(CCc2cc(Cl)c(F)c3c2CNCC3)[C@@H](O)[C@H]1O` [Compound 20, (1S,2R,5R)-5-(4-amino-7H-pyrrolo[2,3-d]pyrimidin-7-yl)-3-(2-(6-chloro-5-fluoro-1,2,3,4-tetrahydroisoquinolin-8-yl)ethyl)cyclopent-3-ene-1,2-diol], the results for the IC50 in the assay on SDMA (setting [1]), at PRMT5:MEP50 and with Z-138 cells were 1100 to 50000 pM, 0.25 to 0.95 nM and more than 1000 pM, respectively.

For `Nc1ncnc2c1ccn2[C@@H]1C=C(CCc2cc(F)c(F)c3c2CNCC3)[C@@H](O)[C@H]1O` [Compound 21, (1S,2R,5R)-5-(4-amino-7H-pyrrolo[2,3-d]pyrimidin-7-yl)-3-(2-(5,6-difluoro-1,2,3,4-tetrahydroisoquinolin-8-yl)ethyl)cyclopent-3-ene-1,2-diol], the concentration for half-maximal inhibition (IC50) with SDMA (setting [1]) was in the range of 1100 to 50000 pM; at PRMT5:MEP50, 0.25 to 0.95 nM; in the assay on Z-138 cells (setting [2]), 101 to 1000 pM.
